{
  "source": "ChEMBL document CHEMBL4431301",
  "about": "“The Medicinal Chemistry of Dengue Virus” (J Med Chem, 2016)",
  "key": {"Nonstructural protein 5": {"molecular_target": "Nonstructural protein 5 (Dengue virus, UniProt V5TFZ2)", "sequence (V5TFZ2 whole entry)": "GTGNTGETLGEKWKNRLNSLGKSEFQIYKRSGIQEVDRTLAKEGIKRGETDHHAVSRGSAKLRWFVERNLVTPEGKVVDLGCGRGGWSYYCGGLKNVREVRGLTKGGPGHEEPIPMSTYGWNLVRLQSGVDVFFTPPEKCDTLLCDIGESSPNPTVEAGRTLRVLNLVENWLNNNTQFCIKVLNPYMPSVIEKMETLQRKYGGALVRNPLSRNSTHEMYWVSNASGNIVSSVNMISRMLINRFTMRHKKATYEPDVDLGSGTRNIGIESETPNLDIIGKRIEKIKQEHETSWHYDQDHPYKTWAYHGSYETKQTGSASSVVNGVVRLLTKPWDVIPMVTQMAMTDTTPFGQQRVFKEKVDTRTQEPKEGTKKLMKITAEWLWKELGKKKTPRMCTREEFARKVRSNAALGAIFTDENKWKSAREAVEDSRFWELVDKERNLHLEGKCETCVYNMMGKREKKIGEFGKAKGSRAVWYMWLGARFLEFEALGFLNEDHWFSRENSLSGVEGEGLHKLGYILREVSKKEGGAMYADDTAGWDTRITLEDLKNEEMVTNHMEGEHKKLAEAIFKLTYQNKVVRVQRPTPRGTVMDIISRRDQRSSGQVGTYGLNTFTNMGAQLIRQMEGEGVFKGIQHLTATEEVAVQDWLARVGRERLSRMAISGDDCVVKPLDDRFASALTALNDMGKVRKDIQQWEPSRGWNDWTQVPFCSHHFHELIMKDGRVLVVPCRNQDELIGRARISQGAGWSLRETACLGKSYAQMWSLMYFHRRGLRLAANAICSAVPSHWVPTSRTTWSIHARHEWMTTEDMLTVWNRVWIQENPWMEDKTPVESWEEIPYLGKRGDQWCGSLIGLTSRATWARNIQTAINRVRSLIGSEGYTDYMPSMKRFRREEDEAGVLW", "test": "Inhibition of N-terminal GST tagged recombinant Dengue virus 3 2'-O methyltransferase expressed in Escherichia coli BL21 cells by scintillation counting analysis", "design": "species or system dengue virus type 3"}, "[1]": {"test": "Inhibition of N-terminal GST tagged recombinant Dengue virus 3 N-7 methyltransferase expressed in Escherichia coli BL21 cells by scintillation counting analysis", "design": "species or system dengue virus type 3"}, "[2]": {"test": "Selectivity index, ratio of CC50 for african green monkey Vero cells to EC50 for Dengue virus 2 NGC", "type": "toxicity", "conditions": "read-out: Ratio CC50/EC50"}, "dengue virus type 2 [3]": {"system": "dengue virus type 2", "test": "Antiviral activity against Dengue virus 2 NGC preincubated for 30 mins with virus followed by cell infection for 2 hrs measured after 5 days by immunostaining based plaque reduction assay", "type": "functional, organism-based"}, "Yellow fever virus": {"system": "Yellow fever virus", "test": "Antiviral activity against Yellow fever virus 17D Vaccine preincubated for 30 mins with virus followed by cell infection for 2 hrs measured after 6 days by crystal violet staining based plaque reduction assay", "type": "functional, organism-based"}, "West Nile virus [4]": {"system": "West Nile virus", "test": "Antiviral activity against West Nile virus Kunjin preincubated for 30 mins with virus followed by cell infection for 2 hrs measured after 3 days by crystal violet staining based plaque reduction assay", "type": "functional, organism-based"}, "[5]": {"test": "Inhibition of yeast alpha-glucosidase by double reciprocal plot method", "design": "species or system Saccharomyces cerevisiae"}, "dengue virus type 4 [6]": {"system": "dengue virus type 4", "test": "Antiviral activity against Dengue virus 4 infected in human Huh7 cells assessed as reduction in viral replication after 48 hrs by plaque assay", "type": "functional, organism-based", "conditions": "Huh-7, 48 h"}, "dengue virus type 1 [7]": {"system": "dengue virus type 1", "test": "Antiviral activity against Dengue virus 1 infected in human Huh7 cells assessed as reduction in viral replication after 48 hrs by plaque assay", "type": "functional, organism-based", "conditions": "Huh-7, 48 h"}, "dengue virus type 2 [8]": {"system": "dengue virus type 2", "test": "Antiviral activity against Dengue virus 2 infected in human Huh7 cells assessed as reduction in viral replication after 48 hrs by plaque assay", "type": "functional, organism-based", "conditions": "Huh-7, 48 h"}, "dengue virus type 3 [9]": {"system": "dengue virus type 3", "test": "Antiviral activity against Dengue virus 3 infected in human Huh7 cells assessed as reduction in viral replication after 48 hrs by plaque assay", "type": "functional, organism-based", "conditions": "Huh-7, 48 h"}, "dengue virus type 2 [10]": {"system": "dengue virus type 2", "test": "Antiviral activity against Dengue virus 2 Taiwanese PL046 infected in BHK21 cells after 48 hrs by plaque assay", "type": "functional, organism-based", "conditions": "Taiwanese PL046, BHK-21, 48 h"}, "dengue virus type 1 [11]": {"system": "dengue virus type 1", "test": "Antiviral activity against Dengue virus 1 2402 infected in BHK21 cells after 48 hrs by CFI assay", "type": "functional, organism-based", "conditions": "Dengue virus, 2402, BHK-21, 48 h"}, "dengue virus type 2 [12]": {"system": "dengue virus type 2", "test": "Antiviral activity against Dengue virus 2 3295 infected in BHK21 cells after 48 hrs by CFI assay", "type": "functional, organism-based", "conditions": "Dengue virus, 3295, BHK-21, 48 h"}, "dengue virus type 3 [13]": {"system": "dengue virus type 3", "test": "Antiviral activity against Dengue virus 3 863 infected in BHK21 cells after 48 hrs by CFI assay", "type": "functional, organism-based", "conditions": "Dengue virus, 863, BHK-21, 48 h"}, "dengue virus type 4 [14]": {"system": "dengue virus type 4", "test": "Antiviral activity against Dengue virus 4 2270 infected in BHK21 cells after 48 hrs by CFI assay", "type": "functional, organism-based", "conditions": "Dengue virus, 2270, BHK-21, 48 h"}, "dengue virus type 1 [15]": {"system": "dengue virus type 1", "test": "Antiviral activity against Dengue virus 1 infected in human PBMC assessed as reduction in viral titer after 48 hrs preincubated with cells prior to ADE-mediated viral infection by plaque assay", "type": "functional, organism-based"}, "[16]": {"test": "Inhibition of biotinylated Imp-alpha/beta1 (unknown origin) binding to Dengue virus NS5 by alpha screen assay", "design": "species or system Homo sapiens"}, "dengue virus type 2 [17]": {"system": "dengue virus type 2", "test": "Antiviral activity against Dengue virus 2 NGC infected in african green monkey Vero cells assessed as reduction in viral titer at 6 uM after 44 hrs relative to control", "type": "functional"}, "dengue virus type 2 [18]": {"system": "dengue virus type 2", "test": "Antiviral activity against Dengue virus 2 NGC infected in african green monkey Vero cells assessed as reduction in viral titer at 17 uM after 44 hrs relative to control", "type": "functional"}, "[19]": {"test": "Drug uptake in C57BL/6 mouse kidney infected with Ebola virus at 3 mg/kg, iv administered 2 hrs prior to viral infection measured on day 2 and 5 post viral infection by mass spectrometry", "type": "ADME, organism-based", "conditions": "read-out: Drug uptake"}, "dengue virus type 4 [20]": {"system": "dengue virus type 4", "test": "Antiviral activity against Dengue virus 4 infected in african green monkey Vero E6 cells assessed as inhibition of viral yield after 72 hrs by flow cytometry", "type": "functional, organism-based", "conditions": "Vero C1008, 72 h"}, "dengue virus type 3 [21]": {"system": "dengue virus type 3", "test": "Antiviral activity against Dengue virus 3 infected in african green monkey Vero E6 cells assessed as inhibition of viral yield after 72 hrs by flow cytometry", "type": "functional, organism-based", "conditions": "Vero C1008, 72 h"}, "dengue virus type 1 [22]": {"system": "dengue virus type 1", "test": "Antiviral activity against Dengue virus 1 infected in african green monkey Vero E6 cells assessed as inhibition of viral yield after 72 hrs by flow cytometry", "type": "functional, organism-based", "conditions": "Vero C1008, 72 h"}, "dengue virus type 2 [23]": {"system": "dengue virus type 2", "test": "Antiviral activity against Dengue virus 2 infected in african green monkey Vero E6 cells assessed as inhibition of viral yield after 72 hrs by flow cytometry", "type": "functional, organism-based", "conditions": "Vero C1008, 72 h"}, "[24]": {"test": "Drug uptake in C57BL/6 mouse spleen infected with Ebola virus at 3 mg/kg, iv administered 2 hrs prior to viral infection measured on day 2 and 5 post viral infection by mass spectrometry", "type": "ADME, organism-based", "conditions": "read-out: Drug uptake"}, "dengue virus type 4 [25]": {"system": "dengue virus type 4", "test": "Antiviral activity against Dengue virus 4 by CFI assay", "type": "functional, organism-based"}, "West Nile virus [26]": {"system": "West Nile virus", "test": "Antiviral activity against West Nile virus NY99 infected in african green monkey Vero cells assessed as reduction in viral titer preincubated for 2 hrs measured after 4 days by qRT-PCR", "type": "functional, organism-based"}, "dengue virus type 2 [27]": {"system": "dengue virus type 2", "test": "Antiviral activity against Dengue virus 2 NGC infected in african green monkey Vero cells assessed as reduction in viral titer preincubated for 2 hrs measured after 4 days by qRT-PCR", "type": "functional, organism-based"}, "dengue virus type 2 [28]": {"system": "dengue virus type 2", "test": "Antiviral activity against Dengue virus 2 by CFI assay", "type": "functional, organism-based"}, "dengue virus type 3 [29]": {"system": "dengue virus type 3", "test": "Antiviral activity against Dengue virus 3 by CFI assay", "type": "functional, organism-based"}, "dengue virus type 1 [30]": {"system": "dengue virus type 1", "test": "Antiviral activity against Dengue virus 1 by CFI assay", "type": "functional, organism-based"}, "[31]": {"test": "Inhibition of GST-fused Imp-alpha/beta1 (unknown origin) binding to Dengue virus NS5 after 2 hrs by alpha screen assay", "design": "species or system Homo sapiens"}},
  "data": [
    {"molecule": "N[C@@H](CCSC[C@H]1O[C@@H](n2cnc3c(NCc4cccc(Cl)c4)ncnc32)[C@H](O)[C@@H]1O)C(=O)O", "values": [
      {"measurement": "Ki", "setting": "Nonstructural protein 5", "result": 170, "unit": "nM"},
      {"measurement": "Ki", "setting": "[1]", "result": 820, "unit": "nM"}
    ]},
    {"molecule": "C/C(=N\\Nc1ccccc1)c1sc(-c2cc(Cl)nc(Oc3ccc(Cl)cc3)c2)nc1C", "values": [
      {"measurement": "selectivity ratio", "setting": "[2]", "result": "> 83"},
      {"measurement": "IC50", "setting": "dengue virus type 2 [3]", "result": 1200, "unit": "nM"},
      {"measurement": "IC50", "setting": "Yellow fever virus", "result": 1600, "unit": "nM"},
      {"measurement": "IC50", "setting": "West Nile virus [4]", "result": 3800, "unit": "nM"}
    ]},
    {"molecule": "O=C(NC[C@H]1N[C@H](CO)[C@@H](O)[C@@H]1O)C1Cc2ccccc21", "note": "(stereo partly drawn)", "values": [
      {"measurement": "Ki", "setting": "[5]", "result": 53, "unit": "nM"}
    ]},
    {"molecule": "CC(=O)O[C@H]1C[C@H](O[C@H]2[C@@H](O)C[C@H](O[C@H]3[C@@H](O)C[C@H](O[C@H]4CC[C@@]5(C)[C@H](CC[C@@H]6[C@@H]5C[C@@H](O)[C@]5(C)[C@@H](C7=CC(=O)OC7)CC[C@]65O)C4)O[C@@H]3C)O[C@@H]2C)O[C@H](C)[C@H]1O[C@@H]1O[C@H](CO)[C@@H](O)[C@H](O)[C@H]1O", "note": "[LANATOSIDE C]", "values": [
      {"measurement": "IC50", "setting": "dengue virus type 4 [6]", "result": "500 to 1000", "unit": "nM"},
      {"measurement": "IC50", "setting": "dengue virus type 1 [7]", "result": "500 to 1000", "unit": "nM"},
      {"measurement": "IC50", "setting": "dengue virus type 2 [8]", "result": "500 to 1000", "unit": "nM"},
      {"measurement": "IC50", "setting": "dengue virus type 3 [9]", "result": "500 to 1000", "unit": "nM"}
    ]},
    {"molecule": "CCCCCCCCCCN1[C@H](CO)[C@@H](O)[C@H](O)[C@H]1CNC(=O)C1Cc2ccccc21", "note": "(stereo partly drawn)", "values": [
      {"measurement": "EC50", "setting": "dengue virus type 2 [10]", "result": 4700, "unit": "nM"}
    ]},
    {"molecule": "CCCC(=O)O[C@H]1CN2CC[C@H](O)[C@@H]2[C@@H](O)[C@@H]1O", "note": "[CELGOSIVIR]", "values": [
      {"measurement": "EC50", "setting": "dengue virus type 1 [11]", "result": "220 to 680", "unit": "nM"},
      {"measurement": "EC50", "setting": "dengue virus type 2 [12]", "result": 200, "unit": "nM"},
      {"measurement": "EC50", "setting": "dengue virus type 3 [13]", "result": "220 to 680", "unit": "nM"},
      {"measurement": "EC50", "setting": "dengue virus type 4 [14]", "result": "220 to 680", "unit": "nM"}
    ]},
    {"molecule": "CC1=C(/C=C/C(C)=C/C=C/C(C)=C/C(=O)Nc2ccc(O)cc2)C(C)(C)CCC1", "note": "[FENRETINIDE]", "values": [
      {"measurement": "EC50", "setting": "dengue virus type 1 [15]", "result": "800 to 2600", "unit": "nM"},
      {"measurement": "IC50", "setting": "[16]", "result": "1000 to 1500", "unit": "nM"}
    ]},
    {"molecule": "O=C(Nc1cccc(Cn2cc(-c3cccc(S(=O)(=O)Nc4ccccc4C(=O)O)c3)cn2)c1)c1ccc(C(=O)c2ccccc2)cc1", "values": [
      {"measurement": "fold change (FC)", "setting": "dengue virus type 2 [17]", "result": 3.4},
      {"measurement": "fold change (FC)", "setting": "dengue virus type 2 [18]", "result": 4.5}
    ]},
    {"molecule": "Cc1cc(NCCCN(C)C)c2ccc3c(ccc4c(NCCCN(C)C)cc(C)nc43)c2n1", "values": [
      {"measurement": "concentration at 2 h", "setting": "[19]", "result": 43100, "unit": "ng/g"},
      {"measurement": "EC50", "setting": "dengue virus type 4 [20]", "result": "400 to 900", "unit": "nM"},
      {"measurement": "EC50", "setting": "dengue virus type 3 [21]", "result": "400 to 900", "unit": "nM"},
      {"measurement": "EC50", "setting": "dengue virus type 1 [22]", "result": "400 to 900", "unit": "nM"},
      {"measurement": "EC50", "setting": "dengue virus type 2 [23]", "result": "400 to 900", "unit": "nM"},
      {"measurement": "concentration at 2 h", "setting": "[24]", "result": 19500, "unit": "ng/g"}
    ]},
    {"molecule": "IVERMECTIN", "values": [
      {"measurement": "EC50", "setting": "dengue virus type 4 [25]", "result": "1200 to 1600", "unit": "nM"},
      {"measurement": "EC50", "setting": "West Nile virus [26]", "result": 4000, "unit": "nM"},
      {"measurement": "EC50", "setting": "dengue virus type 2 [27]", "result": 700, "unit": "nM"},
      {"measurement": "EC50", "setting": "dengue virus type 2 [28]", "result": "1200 to 1600", "unit": "nM"},
      {"measurement": "EC50", "setting": "dengue virus type 3 [29]", "result": "1200 to 1600", "unit": "nM"},
      {"measurement": "EC50", "setting": "dengue virus type 1 [30]", "result": "1200 to 1600", "unit": "nM"},
      {"measurement": "IC50", "setting": "[31]", "result": 17000, "unit": "nM"}
    ]}
  ]
}
